# Experimental data reported in ChEMBL document CHEMBL1649379, “Synthesis of a novel ester of hydroxytyrosol and α-lipoic acid exhibiting an antiproliferative effect on human colon cancer HT-29 cells” (2011).
# Columns and labels:
# Type in all cases: functional
# [1] = system: HT-29; assay: Induction of cell cycle arrest in human HT-29 cells assessed as accumulation at G0/G1 phase at 300 uM after 24 hrs by flow cytometry (reference value: 61.4+/-1.1%)
# [2] = system: HT-29; assay: Induction of cell cycle arrest in human HT-29 cells assessed as accumulation at G2/M phase at 300 uM after 24 hrs by flow cytometry (reference value: 17.6+/-1%)
# [3] = system: HT-29; assay: Growth inhibition of human HT-29 cells at 300 uM after 48 hrs by BrdU-ELISA assay; settings: HT-29, 48 h, read-out: GI
# [4] = system: HT-29; assay: Growth inhibition of human HT-29 cells at 150 uM after 48 hrs by BrdU-ELISA assay; settings: HT-29, 48 h, read-out: GI
# [5] = system: HT-29; assay: Induction of cell cycle arrest in human HT-29 cells assessed as accumulation at G2/M phase at 100 uM after 24 hrs by flow cytometry (reference value: 17.6+/-1%)
# [6] = system: HT-29; assay: Growth inhibition of human HT-29 cells at 300 uM after 24 hrs by BrdU-ELISA assay; settings: HT-29, 24 h, read-out: GI
# [7] = system: HT-29; assay: Induction of cell cycle arrest in human HT-29 cells assessed as accumulation at G0/G1 phase at 150 uM after 24 hrs by flow cytometry (reference value: 61.4+/-1.1%)
# [8] = system: HT-29; assay: Growth inhibition of human HT-29 cells at 150 uM after 24 hrs by BrdU-ELISA assay; settings: HT-29, 24 h, read-out: GI
# [9] = system: HT-29; assay: Growth inhibition of human HT-29 cells at 100 uM after 48 hrs by BrdU-ELISA assay; settings: HT-29, 48 h, read-out: GI
# [10] = system: HT-29; assay: Induction of cell cycle arrest in human HT-29 cells assessed as accumulation at G0/G1 phase at 100 uM after 24 hrs by flow cytometry (reference value: 61.4+/-1.1%)
# [11] = system: HT-29; assay: Induction of cell cycle arrest in human HT-29 cells assessed as accumulation at S phase at 300 uM after 24 hrs by flow cytometry (reference value: 21+/-0.9%)
# [12] = system: HT-29; assay: Induction of cell cycle arrest in human HT-29 cells assessed as accumulation at S phase at 100 uM after 24 hrs by flow cytometry (reference value: 21+/-0.9%)
# [13] = system: HT-29; assay: Growth inhibition of human HT-29 cells at 100 uM after 24 hrs by BrdU-ELISA assay; settings: HT-29, 24 h, read-out: GI
# [14] = system: HT-29; assay: Induction of cell cycle arrest in human HT-29 cells assessed as accumulation at S phase at 150 uM after 24 hrs by flow cytometry (reference value: 21+/-0.9%)
# [15] = system: HT-29; assay: Induction of cell cycle arrest in human HT-29 cells assessed as accumulation at G2/M phase at 150 uM after 24 hrs by flow cytometry (reference value: 17.6+/-1%)
Structure (SMILES),Activity [1] [%],Activity [2] [%],inhibition of growth at 300 µM [3] [%],inhibition of growth at 150 µM [4] [%],Activity [5] [%],inhibition of growth at 300 µM [6] [%],Activity [7] [%],inhibition of growth at 150 µM [8] [%],inhibition of growth at 100 µM [9] [%],Activity [10] [%],Activity [11] [%],Activity [12] [%],inhibition of growth at 100 µM [13] [%],Activity [14] [%],Activity [15] [%]
O=C(CCCCC1CCSS1)OCCc1ccc(O)c(O)c1 (stereo not given),28.2,56.8,83.6,70.6,49.7,83.9,29.3,69.6,45.6,31.3,14,17.7,33.9,18.1,50.5
OCCc1ccc(O)c(O)c1 [HYDROXYTYROSOL],34.4,43.5,53.2,29.3,35,64.2,40.3,37.5,17.3,40.5,20.1,22.5,20.7,20.3,36.7
"O=C(O)CCCCC1CCSS1 (stereo not drawn) [LIPOIC ACID, ALPHA]",37.5,40.3,19.5,18.4,36.9,24,45.6,25.5,6.5,43.5,19.3,19.2,17.8,20.1,32.1
